In US7579468B2, “Methods of modulating neurotrophin-mediated activity” (PainCeptor Pharma Corporation, priority 2005, dated 2009):
“Also recorded” adds a separate entry of the source.

Legend:
[1] = test system: T1, PC12 (TrkA & p75); assay: 125I-NGF binding displacement in PC12 cells; parameters: species or system rat; details: for PC12 (TrkA & p75) Single point (% max binding) Mean: PC12 cells; for NGF binding displacement, dose-response curve: PC12 cells expressing TrkA and p75, individual experiment
T1 construct: other: Concentration 25 μM; PC12 cells; other: Concentration 50 μM; other: PC12 cells; 125I-NGF ~0.11 nM; other: PC12 cells expressing TrkA and p75; individual experiment; fused on or other part: 125I label on NGF
Description: (§1) All cells were incubated at 37° C. in 5% CO2. PC12 cells were maintained in RPMI-1640 medium supplemented with 10% fetal bovine serum (FBS). A875 human melanoma cells were maintained in DMEM with 10% FBS. HEK 293 cells were stably transfected with human TrkA plasmid (see below) and maintained in DMEM with 10% FBS and G418 (600 μg/mL) for selection.
(§2) NGF binding was evaluated using methods familiar to those who are skilled in the art. Briefly, cells expressing one or both NGF receptors (PC12: TrkA+p75; A875: p75 alone; HEK_TrkA: TrkA alone) were harvested by replacing the medium with calcium-magnesium free balanced salt (Grey's) solution and incubating at 37° C. for 15 min. For NGF binding, cells were resuspended at a concentration of 2×10^6 cells/mL in HEPES-Krebs-Ringer (HKR) buffer (10 mM HEPES; 125 mM NaCl; 4.8 mM KCl; 1.3 mM CaCl2; 1.2 mM MgSO4; 1.2 mM KH2PO4; 1 mg/ml BSA; 1 mg/ml glucose; pH 7.4) and exposed to ^125I-NGF (˜0.11 nM) in the presence or absence of varying concentrations of the compound. Non-specific binding was determined for reference by incubating ^125I-NGF with an excess of non-radioactive NGF in the absence of compound. Following a two-hour incubation period at 4° C., ^125I-NGF bound to the cells was quantified in a gamma radiation counter following separation from unbound NGF by filtration or centrifugation through glycerol (10% in HKR). Inhibition of binding was calculated as a percent of the specific binding (calculated as the differential between ^125I-NGF binding in the absence and presence of an excess of non-radioactive NGF without compound). Dose-response inhibition curves were typically generated with seven concentrations of a given compound, with three replicates for each concentration. For most compounds, multiple dose-response curves were generated.

[2] = test system: Mice; assay: Writhing Test (acetic acid abdominal contraction test); assay type: in vivo, mouse; details: 100 mg/kg i.p., 30 minutes following acetic acid, vehicle 57±1
Description: The acetic acid abdominal contraction test (Martinez et al., Pain 1999; 81: 179) was used to determine the efficacy of different compounds in a model of acute visceral chemical nociception. […] Compound or vehicle was administered (i.p. or s.c.) 15-45 minutes prior to the acetic acid injection. Each episode of writhing is characterized by a lengthwise stretching of the torso with a concomitant arching of the back.
Statistical analysis was performed using Prism™ 4.01 software package (GraphPad, San Diego, Calif., USA). The difference in response levels between treatment groups and control vehicle group was analyzed using an ANOVA followed by Bonferroni's method for post-hoc pair-wise comparisons. A p value <0.05 was considered to be significant.

[3] = test system: PC12 cells; assay: NGF-induced neurite outgrowth in PC12 cells; assay type: cell-based, rat; details: 4 days of exposure to NGF
Description: This assay was run as a further functional marker of NGF antagonism and takes advantage of the differentiation of PC12 cells (neurite outgrowth) induced by NGF. Cultures of PC12 cells were grown on Terasaki plates pre-coated with poly-D-lysine. Cells were exposed to NGF (1-50 (preferably 5) ng/ml) to induce neurite outgrowth as described elsewhere [L A Greene & A S Tischler, Establishment of a noradrenergic clonal line of rat adrenal pheochromocytoma cells which respond to nerve growth factor, Proc Natl Acad Sci USA. 1976 July; 73(7): 2424-2428]. In addition to NGF, cells were exposed to varying concentration of the compounds or vehicle. Following 4 days of exposure to NGF in the presence or absence of compound, neurite outgrowth was quantified. A neurite was scored if its caliber from origin to terminal was approximately the same and the length was equal to or greater than 1.5 the cell body diameter. The number of neurite bearing cells per total number of viable cells was calculated for each condition; the number of cells with neurites in the presence of NGF (without compound exposure) was considered to represent maximal (100%) outgrowth, to which the inhibitory effect of compounds of the invention on NGF-induced outgrowth was compared.

[4] = test system: T2, PC12 (TrkA & p75); assay: 125I-NGF binding displacement in PC12 cells; parameters: species or system rat; details: PC12, A875 and HEK_TrkA cells taken together
T2 construct: other: PC12, A875 an; fused on or other part: 125I label on NGF
Description: as §1, §2

[5] = test system: A875: p75 alone; assay: 125I-NGF binding displacement in A875 cells; parameters: species or system human; details: A875 cells expressing p75; individual experiment
Description: as §1, §2

[6] = test system: HEK_TrkA: TrkA alone (human TrkA); assay: 125I-NGF binding displacement in HEK_TrkA cells; details: individual experiment
Description: as §1
Expression of human TrkA in HEK cells was achieved by transfecting the cells with the TrkA expression vector using Lipofectamine (Invitrogen) reagent. HEK cells were plated in 100 mm Petri dishes at a concentration of 10^6 cells per dish. The next day, a solution of DNA diluted in 1 mL OptiMEM (Invitrogen) per dish was prepared and incubated for 15 min at room temperature. […]
NGF binding was evaluated using methods familiar to those who are skilled in the art. […] Non-specific binding was determined for reference by incubating ^125I-NGF with an excess of non-radioactive NGF in the absence of compound. Following a two-hour incubation period at 4° C., ^125I-NGF bound to the cells was quantified in a gamma radiation counter following separation from unbound NGF by filtration or centrifugation through glycerol (10% in HKR). Inhibition of binding was calculated as a percent of the specific binding (calculated as the differential between ^125I-NGF binding in the absence and presence of an excess of non-radioactive NGF without compound). […]

[7] = test system: Male Sprague-Dawley rats; assay: Spared Nerve Injury (SNI) model of neuropathic pain; assay type: in vivo, rat; details: Von Frey filaments, 90 min post-treatment, Compound 11 3 and 10 mg/kg i.p., Compound 107 20 mg/kg i.p.
Excerpt: The Spared Nerve Injury (SNI) model (Decosterd et al., Pain 2000; 87: 149) was used to induce chronic neuropathic pain. Male Sprague-Dawley rats were anesthetized with isoflurane, and two of the three terminal branches of the sciatic nerve (tibial and common peroneal nerves) were transected, leaving the remaining sural nerve intact. Animals develop thermal and mechanical hyperalgesia and allodynia, as well as spontaneous pain or dysesthesia that last month after the nerve injury.
Mechanical allodynia testing: Pre- and post-injury baselines as well as post-treatment values (vehicle or compound-treated animals) for mechanical allodynia were evaluated using Von Frey filaments (Stoelting, Wood Dale, Ill., USA) with varying stiffness. […] The mean and standard error of the mean (SEM) were determined for each paw in each treatment group (ipsilateral/injured paw and contralateral/non-injured paw). […] Effects of compounds were evaluated two weeks after the injury. Compound or vehicle was administered (i.p. or s.c.) and effects on mechanical allodynia were measured at different time points after dosing (e.g., 30, 60 and 90 min.).
Data analysis: Statistical analyses were conducted using Prism™ 4.01 (GraphPad, San Diego, Calif., USA). Mechanical hypersensitivity of the injured paw was determined by comparing contralateral to ipsilateral paw values within the vehicle group at each time point. […]

## NNC(=O)NN1C(=O)c2cc(S(=O)(=O)[O-])cc3c(N)c(S(=O)(=O)[O-])cc(c23)C1=O.[K+].[K+] [Compound 52, 6-Amino-1,3-dioxo-2-amino-ureido-2,3-dihydro-1H-benzo[de]isoquinoline-5,8-disulfonic acid-di-potassium salt]
[1]; Concentration 50 μM
  PC12 (TrkA & p75) Single point (% max binding) Mean: * (* >50)

## O=C(O)CCCN1C(=O)c2cccc3cc([N+](=O)[O-])cc(c23)C1=O [Compound 63, 4-(5-Nitro-1,3-dioxo-1H,3H-benzo[de]isoquinolin-2-yl)-butyric acid]
[2]
  Number of abdominal contractions (writhing): 9±3

## O=C(O)CCCN1C(=O)c2cc(Br)cc3cc([N+](=O)[O-])cc(c23)C1=O [Compound 89, 4-(5-Bromo-8-nitro-1,3-dioxo-1H,3H-benzo[de]isoquinolin-2-yl)-butyric acid]
[1]; Concentration 50 μM
  PC12 (TrkA & p75) Single point (% max binding) Mean: ** (30 < ** <50)

## NC(=O)c1cc2c3c(cccc3c1)C(=O)N(CCCC(=O)O)C2=O [Compound 95, 4-(5-Carbamoyl-1,3-dioxo-1H,3H-benzo[de]isoquinolin-2-yl)-butyric acid]
[3]
  Inhibition of NGF-induced neurite outgrowth: effectively inhibits neurite outgrowth induced by NGF

## O=C(O)CCCN1C(=O)c2cccc3c(C(=O)c4ccccc4)ccc(c23)C1=O [Compound 99, 4-(6-Benzoyl-1,3-dioxo-1H,3H-benzo[de]isoquinolin-2-yl)-butyric acid]
[1]; Concentration 25 μM
  PC12 (TrkA & p75) Single point (% max binding) Mean: *** (* < *** <30)

## O=C(O)CCCN1C(=O)c2cccc3c(C(=O)O)ccc(c23)C1=O [Compound 100, 2-(3-Carboxy-propyl)-1,3-dioxo-2,3-dihydro-1H-benzo[de]isoquinoline-6-carboxylic acid]
[1]; Concentration 25 μM
  PC12 (TrkA & p75) Single point (% max binding) Mean: *** (* < *** <30)

## O=C1Nc2ccc([N+](=O)[O-])c3cccc1c23 [Compound 103, 6-Nitro-1H-benzo[cd]indol-2-one]
[1]; Concentration 25 μM
  PC12 (TrkA & p75) Single point (% max binding) Mean: * (* >50)

## O=C(O)CCCN1C(=O)c2cccc3c(Cl)ccc(c23)C1=O [Compound 104, 4-(6-Chloro-1,3-dioxo-1H,3H-benzo[de]isoquinolin-2-yl)-butyric acid]
[1]; Concentration 25 μM
  PC12 (TrkA & p75) Single point (% max binding) Mean: ** (30 < ** <50)

## CC(=O)Nc1cc2c3c(cc(NC(C)=O)cc3c1)C(=O)N(CCCS(=O)(=O)O)C2=O [Compound 107, 3-(5,8-Bis-acetylamino-1,3-dioxo-1H,3H-benzo[de]isoquinolin-2-yl)-propane-1-sulfonic acid]
[1]
  NGF binding displacement, dose-response curve: effectively blocks NGF binding to cells expressing TrkA and p75
[4]
  Block of NGF binding to TrkA and/or p75 (summary of FIGS. 1B, 2A, 2B, 4A, 4B, 6A, 6B, 7A, 8A, 8B): effectively block NGF binding to TrkA and/or p75
[5]
  NGF binding displacement, dose-response curve: effectively blocks NGF binding to cells expressing p75
[6]
  NGF binding displacement, dose-response curve: effectively blocks NGF binding to cells expressing TrkA
[3]
  Inhibition of NGF-induced neurite outgrowth: effectively inhibits neurite outgrowth induced by NGF
[7]
  Effect on mechanical allodynia in the SNI model: significant dose-dependent reversal of the mechanical allodynia; also recorded: significant antinociceptive effects

## CN(C)S(=O)(=O)c1ccc2c3c(cccc13)C(=O)N(CCCC(=O)O)C2=O [Compound 112, 4-(6-Dimethylsulfamoyl-1,3-dioxo-1H,3H-benzo[de]isoquinolin-2-yl)-butyric acid]
[1]; Concentration 50 μM
  PC12 (TrkA & p75) Single point (% max binding) Mean: *** (* < *** <30)

## O=C(O)CCCN1C(=O)c2cccc3c(S(=O)(=O)N4CCOCC4)ccc(c23)C1=O [Compound 113, 4-[6-(Morpholine-4-sulfonyl)-1,3-dioxo-1H,3H-benzo[de]isoquinolin-2-yl]-butyric acid]
[1]; Concentration 50 μM
  PC12 (TrkA & p75) Single point (% max binding) Mean: ** (30 < ** <50)

## CN(C)S(=O)(=O)c1cc2c3c(cccc3c1)C(=O)N(CCCC(=O)O)C2=O [Compound 114, 4-(5-Dimethylsulfamoyl-1,3-dioxo-1H,3H-benzo[de]isoquinolin-2-yl)-butyric acid]
[1]; Concentration 50 μM
  PC12 (TrkA & p75) Single point (% max binding) Mean: ** (30 < ** <50)

## N#Cc1cc2c3c(cccc3c1)C(=O)N(CCCC(=O)O)C2=O [Compound 124, 4-(5-Cyano-1,3-dioxo-1H,3H-benzo[de]isoquinolin-2-yl)-butyric acid]
[1]
  NGF binding displacement, dose-response curve: effectively blocks NGF binding to cells expressing TrkA and p75
[4]
  Block of NGF binding to TrkA and/or p75 (summary of FIGS. 1B, 2A, 2B, 4A, 4B, 6A, 6B, 7A, 8A, 8B): effectively block NGF binding to TrkA and/or p75
[5]
  NGF binding displacement, dose-response curve: effectively blocks NGF binding to cells expressing p75
[3]
  Inhibition of NGF-induced neurite outgrowth: effectively inhibit neurite outgrowth induced by NGF
